Source: the supplement of paper PMC10307832

What was measured:
Assay in all cases: relative viability (nuclei count vs DMSO), 5 days (fraction); higher = more cells survive
FH535 = compound: CC1=C(C=CC(=C1)[N+](=O)[O-])NS(=O)(=O)C2=C(C=CC(=C2)Cl)Cl [FH535]
Method in brief: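 Cells of lung cancer lines were placed in 1536-well plates and kept overnight at 37 °C. Pinning then delivered five library-drug doses (not always all listed), spaced by √10, onto plates anchored with vehicle, and the cells were left 5 days without changing medium. One step fixed, permeabilised and stained them with Hoechst, and MetaXpress counted nuclei in 4× images. Viability, as a median over plates, is treated-well nuclei divided by vehicle-well nuclei, with acceptance only at control CV below 25% and at least one doubling.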

FH535 + Bortezomib = compound: CC1=C(C=CC(=C1)[N+](=O)[O-])NS(=O)(=O)C2=C(C=CC(=C2)Cl)Cl [FH535] + CC(C)C[C@H](NC(=O)[C@H](Cc1ccccc1)NC(=O)c1cnccn1)B(O)O [Bortezomib] (partner 0.002 µM)
Method in brief: (§1)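 One day after seeding in 1536-well plates, lung cancer cell lines were dosed by pin tool. Dosing was either single-drug or a fixed anchor-drug dose plus five library-drug doses (not always all listed) in √10 steps. After 5 days, nuclei were stained in one fix-and-stain step and counted on 4× images, and relative viability is the nuclei count of treated wells over that of vehicle wells, given as the median of duplicate plates.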

FH535 + Navitoclax = compound: CC1=C(C=CC(=C1)[N+](=O)[O-])NS(=O)(=O)C2=C(C=CC(=C2)Cl)Cl [FH535] + CC1(C)CCC(c2ccc(Cl)cc2)=C(CN2CCN(c3ccc(C(=O)NS(=O)(=O)c4ccc(N[C@H](CCN5CCOCC5)CSc5ccccc5)c(S(=O)(=O)C(F)(F)F)c4)cc3)CC2)C1 [Navitoclax] (partner 0.5 µM)
Method in brief: as §1

FH535 + Foretinib = compound: CC1=C(C=CC(=C1)[N+](=O)[O-])NS(=O)(=O)C2=C(C=CC(=C2)Cl)Cl [FH535] + COc1cc2c(Oc3ccc(NC(=O)C4(C(=O)Nc5ccc(F)cc5)CC4)cc3F)ccnc2cc1OCCCN1CCOCC1 [Foretinib] (partner 0.25 µM)
Method in brief: as §1

FH535 + Lapatinib = compound: CC1=C(C=CC(=C1)[N+](=O)[O-])NS(=O)(=O)C2=C(C=CC(=C2)Cl)Cl [FH535] + CS(=O)(=O)CCNCc1ccc(-c2ccc3ncnc(Nc4ccc(OCc5cccc(F)c5)c(Cl)c4)c3c2)o1 [Lapatinib] (partner 2 µM)
Method in brief: as §1

FH535 + Pictilisib = compound: CC1=C(C=CC(=C1)[N+](=O)[O-])NS(=O)(=O)C2=C(C=CC(=C2)Cl)Cl [FH535] + CS(=O)(=O)N1CCN(Cc2cc3nc(-c4cccc5[nH]ncc45)nc(N4CCOCC4)c3s2)CC1 [Pictilisib] (partner 1 µM)
Method in brief: as §1

FH535 + Crizotinib = compound: CC1=C(C=CC(=C1)[N+](=O)[O-])NS(=O)(=O)C2=C(C=CC(=C2)Cl)Cl [FH535] + C[C@@H](Oc1cc(-c2cnn(C3CCNCC3)c2)cnc1N)c1c(Cl)ccc(F)c1Cl [Crizotinib] (partner 1 µM)
Method in brief: as §1

FH535 + Linsitinib = compound: CC1=C(C=CC(=C1)[N+](=O)[O-])NS(=O)(=O)C2=C(C=CC(=C2)Cl)Cl [FH535] + C[C@]1(O)C[C@@H](c2nc(-c3ccc4ccc(-c5ccccc5)nc4c3)c3c(N)nccn32)C1 [Linsitinib] (partner 1 µM)
Method in brief: as §1

FH535 + Alpelisib = compound: CC1=C(C=CC(=C1)[N+](=O)[O-])NS(=O)(=O)C2=C(C=CC(=C2)Cl)Cl [FH535] + Cc1nc(NC(=O)N2CCC[C@H]2C(N)=O)sc1-c1ccnc(C(C)(C)C(F)(F)F)c1 [Alpelisib] (partner 2 µM)
Method in brief: as §1

FH535 + Olaparib = compound: CC1=C(C=CC(=C1)[N+](=O)[O-])NS(=O)(=O)C2=C(C=CC(=C2)Cl)Cl [FH535] + O=C(c1cc(Cc2n[nH]c(=O)c3ccccc23)ccc1F)N1CCN(C(=O)C2CC2)CC1 [Olaparib] (partner 8 µM)
Method in brief: as §1

FH535 + Luminespib = compound: CC1=C(C=CC(=C1)[N+](=O)[O-])NS(=O)(=O)C2=C(C=CC(=C2)Cl)Cl [FH535] + CCNC(=O)c1noc(-c2cc(C(C)C)c(O)cc2O)c1-c1ccc(CN2CCOCC2)cc1 [Luminespib] (partner 0.01 µM)
Method in brief: as §1

FH535 + OSI-027 = compound: CC1=C(C=CC(=C1)[N+](=O)[O-])NS(=O)(=O)C2=C(C=CC(=C2)Cl)Cl [FH535] + COc1cccc2cc(-c3nc([C@H]4CC[C@H](C(=O)O)CC4)n4ncnc(N)c34)[nH]c12 [OSI-027] (partner 0.5 µM)
Method in brief: as §1

FH535 + Dasatinib = compound: CC1=C(C=CC(=C1)[N+](=O)[O-])NS(=O)(=O)C2=C(C=CC(=C2)Cl)Cl [FH535] + Cc1nc(Nc2ncc(C(=O)Nc3c(C)cccc3Cl)s2)cc(N2CCN(CCO)CC2)n1 [Dasatinib] (partner 0.075 µM)
Method in brief: as §1

FH535 + Phenformin = compound: CC1=C(C=CC(=C1)[N+](=O)[O-])NS(=O)(=O)C2=C(C=CC(=C2)Cl)Cl [FH535] + N=C(N)NC(=N)NCCc1ccccc1 [Phenformin] (partner 250 µM)
Method in brief: as §1

FH535 + Pemetrexed = compound: CC1=C(C=CC(=C1)[N+](=O)[O-])NS(=O)(=O)C2=C(C=CC(=C2)Cl)Cl [FH535] + Nc1nc2[nH]cc(CCc3ccc(C(=O)N[C@@H](CCC(=O)O)C(=O)O)cc3)c2c(=O)[nH]1 [Pemetrexed] (partner 0.2 µM)
Method in brief: as §1

NCI-H1299
relative viability (FH535; 0.04 µM): 1.01
relative viability (FH535; 0.1265 µM): 1.01
relative viability (FH535; 0.4 µM): 1.02
relative viability (FH535; 1.265 µM): 0.932
relative viability (FH535 + Bortezomib; first compound 0.04 µM): 1.03
relative viability (FH535 + Bortezomib; first compound 0.1265 µM): 1.03
relative viability (FH535 + Bortezomib; first compound 0.4 µM): 1.07
relative viability (FH535 + Bortezomib; first compound 1.265 µM): 0.809
relative viability (FH535 + Navitoclax; first compound 0.04 µM): 1.04
relative viability (FH535 + Navitoclax; first compound 0.1265 µM): 1.07
relative viability (FH535 + Navitoclax; first compound 0.4 µM): 1.08
relative viability (FH535 + Navitoclax; first compound 1.265 µM): 0.954
relative viability (FH535 + Foretinib; first compound 0.04 µM): 1.12
relative viability (FH535 + Foretinib; first compound 0.1265 µM): 1.07
relative viability (FH535 + Foretinib; first compound 0.4 µM): 1.12
relative viability (FH535 + Foretinib; first compound 1.265 µM): 1.03
relative viability (FH535 + Lapatinib; first compound 0.04 µM): 0.979
relative viability (FH535 + Lapatinib; first compound 0.1265 µM): 0.947
relative viability (FH535 + Lapatinib; first compound 0.4 µM): 0.963
relative viability (FH535 + Lapatinib; first compound 1.265 µM): 0.76
relative viability (FH535 + Pictilisib; first compound 0.04 µM): 0.736
relative viability (FH535 + Pictilisib; first compound 0.1265 µM): 0.8
relative viability (FH535 + Pictilisib; first compound 0.4 µM): 0.772
relative viability (FH535 + Pictilisib; first compound 1.265 µM): 0.712
relative viability (FH535 + Crizotinib; first compound 0.04 µM): 1
relative viability (FH535 + Crizotinib; first compound 0.1265 µM): 0.932
relative viability (FH535 + Crizotinib; first compound 0.4 µM): 0.966
relative viability (FH535 + Crizotinib; first compound 1.265 µM): 0.876
relative viability (FH535 + Linsitinib; first compound 0.04 µM): 0.98
relative viability (FH535 + Linsitinib; first compound 0.1265 µM): 0.978
relative viability (FH535 + Linsitinib; first compound 0.4 µM): 0.957
relative viability (FH535 + Linsitinib; first compound 1.265 µM): 0.927
relative viability (FH535 + Alpelisib; first compound 0.04 µM): 1.05
relative viability (FH535 + Alpelisib; first compound 0.1265 µM): 0.983
relative viability (FH535 + Alpelisib; first compound 0.4 µM): 1.05
relative viability (FH535 + Alpelisib; first compound 1.265 µM): 1.07
relative viability (FH535 + Olaparib; first compound 0.04 µM): 1.01
relative viability (FH535 + Olaparib; first compound 0.1265 µM): 1.03
relative viability (FH535 + Olaparib; first compound 0.4 µM): 0.973
relative viability (FH535 + Olaparib; first compound 1.265 µM): 0.777

NCI-H1563
relative viability (FH535; 0.04 µM): 0.954
relative viability (FH535; 0.1265 µM): 0.892
relative viability (FH535; 0.4 µM): 0.995
relative viability (FH535; 1.265 µM): 0.771
relative viability (FH535 + Bortezomib; first compound 0.04 µM): 0.835
relative viability (FH535 + Bortezomib; first compound 0.1265 µM): 1.04
relative viability (FH535 + Bortezomib; first compound 0.4 µM): 0.816
relative viability (FH535 + Bortezomib; first compound 1.265 µM): 0.719
relative viability (FH535 + Luminespib; first compound 0.04 µM): 0.491
relative viability (FH535 + Luminespib; first compound 0.1265 µM): 0.556
relative viability (FH535 + Luminespib; first compound 0.4 µM): 0.615
relative viability (FH535 + Luminespib; first compound 1.265 µM): 0.52
relative viability (FH535 + Foretinib; first compound 0.04 µM): 0.909
relative viability (FH535 + Foretinib; first compound 0.1265 µM): 0.825
relative viability (FH535 + Foretinib; first compound 0.4 µM): 0.994
relative viability (FH535 + Foretinib; first compound 1.265 µM): 0.874
relative viability (FH535 + OSI-027; first compound 0.04 µM): 0.736
relative viability (FH535 + OSI-027; first compound 0.1265 µM): 0.701
relative viability (FH535 + OSI-027; first compound 0.4 µM): 0.801
relative viability (FH535 + OSI-027; first compound 1.265 µM): 0.678
relative viability (FH535 + Lapatinib; first compound 0.04 µM): 0.737
relative viability (FH535 + Lapatinib; first compound 0.1265 µM): 0.959
relative viability (FH535 + Lapatinib; first compound 0.4 µM): 0.898
relative viability (FH535 + Lapatinib; first compound 1.265 µM): 0.864
relative viability (FH535 + Pictilisib; first compound 0.04 µM): 0.631
relative viability (FH535 + Pictilisib; first compound 0.1265 µM): 0.657
relative viability (FH535 + Pictilisib; first compound 0.4 µM): 0.627
relative viability (FH535 + Pictilisib; first compound 1.265 µM): 0.637
relative viability (FH535 + Crizotinib; first compound 0.04 µM): 0.871
relative viability (FH535 + Crizotinib; first compound 0.1265 µM): 0.948
relative viability (FH535 + Crizotinib; first compound 0.4 µM): 0.88
relative viability (FH535 + Crizotinib; first compound 1.265 µM): 0.757
relative viability (FH535 + Linsitinib; first compound 0.04 µM): 1.2
relative viability (FH535 + Linsitinib; first compound 0.1265 µM): 1.07
relative viability (FH535 + Linsitinib; first compound 0.4 µM): 1.25
relative viability (FH535 + Linsitinib; first compound 1.265 µM): 1.04
relative viability (FH535 + Alpelisib; first compound 0.04 µM): 0.89
relative viability (FH535 + Alpelisib; first compound 0.1265 µM): 0.931
relative viability (FH535 + Alpelisib; first compound 0.4 µM): 0.981
relative viability (FH535 + Alpelisib; first compound 1.265 µM): 0.837
relative viability (FH535 + Dasatinib; first compound 0.04 µM): 0.445
relative viability (FH535 + Dasatinib; first compound 0.1265 µM): 0.495
relative viability (FH535 + Dasatinib; first compound 0.4 µM): 0.508
relative viability (FH535 + Dasatinib; first compound 1.265 µM): 0.435
relative viability (FH535 + Phenformin; first compound 0.04 µM): 0.665
relative viability (FH535 + Phenformin; first compound 0.1265 µM): 0.669
relative viability (FH535 + Phenformin; first compound 0.4 µM): 0.644
relative viability (FH535 + Phenformin; first compound 1.265 µM): 0.563
relative viability (FH535 + Pemetrexed; first compound 0.04 µM): 0.786
relative viability (FH535 + Pemetrexed; first compound 0.1265 µM): 0.679
relative viability (FH535 + Pemetrexed; first compound 0.4 µM): 0.752
relative viability (FH535 + Pemetrexed; first compound 1.265 µM): 0.625
